{"source": "paper PMC7037447", "about": "“Syntheses of L-Rhamnose-Linked Amino Glycerolipids and Their Cytotoxic Activities against Human Cancer Cells” (Molecules, 2020)", "key": {"JIMT-1 [1]": {"system": "JIMT-1", "test": "Cell membrane integrity, ethidium homodimer-1 (EthD-1) staining", "assay_type": "cell-based", "details": "JIMT-1, 15 µM, 4–6 h", "method": "(§1) After determining that the mechanism of cell death of compound 3 is independent of caspases-mediated apoptosis, we evaluated if cell death was due to membrane disruption or lysis using the cell impermeant ethidium homodimer-1 (EthD-1) dye that emits red fluorescence upon binding to DNA [13, 14]. DU-145 and JIMT-1 were treated with compound 3 at 10 and 15 µM, respectively. After 4–6 h, the cells were treated with EthD-1 dye and monitored under fluorescence microscopy.\n(§2) Equal numbers of JIMT-1 and DU145 cells were dispersed into 96-well plates. After 24 h the cells were incubated with varying concentration of compounds 3 or 4 (4–6 µM) for 5–6 h. Subsequently, 2 µM of the cell membrane impermeant dye, ethidium homodimer-1 (EthD-1 (Molecular Probes, Eugene, OR, USA) that emits red fluorescence upon binding to DNA was added and the cells analysed by fluorescence microscopy. EthD-1 staining was compared to negative controls with no treatment and positive control treated with 0.01% Triton X-100 for 10 min.\n(§3) Figure 5 Evaluation of effect of compound 3 on cell membrane of DU-145 and JIMT-1 cell lines using cell impermeant ethidium homodimer-1 (EthD-1) dye that emits red fluorescence upon binding to DNA."}, "DU-145 [2]": {"system": "DU-145", "test": "Cell membrane integrity, ethidium homodimer-1 (EthD-1) staining", "assay_type": "cell-based", "details": "DU-145, 10 µM, 4–6 h", "method": "as §1, §2, §3"}, "[3]": {"system": "human epithelial cancer cell lines: breast (MDA-MB-231, JIMT-1), pancreas (MiaPaCa2) and prostate (DU-145, PC-3)", "test": "MTS cell viability assay, 48 h, across the panel of cell lines", "assay_type": "cell-based", "details": "48 h, 48 h, MTS; for CC50: range or bound over all cell lines, read-out: CC50 values across the cell lines", "method": "(§4) The cells were incubated with increasing concentrations of the compounds (0–30 µM) for 48 h followed by assessment of cell viability using the MTS assay. […] This compound carries a primary amino group at the sn-3 position of the glycerolipid and L-rhamno sugar at the sn-2 position via an α-rhamnosidic linkage.\n(§5) The cell lines were cultured from frozen stocks originally obtained from ATCC (Manassas, VA, USA). MDA-MB-231, JIMT-1, DU145, MDA-MB-468, Hs578t and MDA-MB-453 were grown in DMEM medium supplemented with 10% FBS. BT-474 cells were grown in DMEM/F12 medium supplemented with 10% FBS. MiaPaCa2 was cultured in DMEM supplemented with 10% FBS and 2.5% horse serum. All the media contained penicillin/streptomycin. U-251 and U-87 in Eagle MEM supplemented by 10% FBS, 1% Non-essential amino acids, 1 mM sodium pyruvate and 2 mM glutamine. BT-549 was cultured in RPMI 1640 medium supplemented with 10% FBS.\n(§6) The effects of the GAELs on the viability of the epithelial cancer cell lines were determined as previously described. Briefly, equal numbers of the cells were dispersed into 96-well plates. After 24 h, the cells were incubated with the compounds (0–30 µM) for 48 h. MTS reagent [3-(4,5-dimethylthiazol-2-yl)-5-(3-carboxymethoxyphenyl)-2-(4-sulfophenyl)-2H-tetrazolium, inner salt; Promega, Madison, WI, USA] (20% v/v) was subsequently added and the plates were incubated for 1–4 h in a CO2 incubator followed by measurement of the medium at OD490 with a plate reader (Molecular Devices). Wells with media but no cells were treated in similar fashion and the values utilized as blank."}, "MDA-MB-231": {"system": "MDA-MB-231", "test": "MTS cell viability assay, 48 h", "assay_type": "cell-based, human", "details": "Homo sapiens; MDA-MB-231, 48 h, MTS; concentration decreasing cell viability by 50% relative to untreated control; read-out: CC50", "method": "[…] […] This compound carries a primary amino group at the sn-3 position of the glycerolipid and L-rhamno sugar at the sn-2 position via an α-rhamnosidic linkage.\nas §5\nas §6, with “After 24 h, the cells were incubated with the compounds (0–30 µM) for 48 h.” left out, “Devices).” for “Devices). Wells with media but no cells were treated in similar fashion and the values utilized as blank.”"}, "MDA-MB-453": {"system": "MDA-MB-453", "test": "MTS cell viability assay, 48 h", "assay_type": "cell-based, human", "method": "(§7) Concentrations of compound 3 between 6–15 µM were sufficient to kill all the triple negative cell lines with the exception of MDA-MB-453 where viability was inhibited by 60% at the highest concentration tested. 30 µM of 3 was required for complete loss of viability of the hormone sensitive breast cancer BT474 cell line.\nas §5\n(§8) The effects of the GAELs on the viability of the epithelial cancer cell lines were determined as previously described. Briefly, equal numbers of the cells were dispersed into 96-well plates. After 24 h, the cells were incubated with the compounds (0–30 µM) for 48 h. […] (20% v/v) was subsequently added and the plates were incubated for 1–4 h in a CO2 incubator followed by measurement of the medium at OD490 with a plate reader (Molecular Devices). […]"}, "JIMT-1 [4]": {"system": "JIMT-1", "test": "MTS cell viability assay, 48 h", "assay_type": "cell-based, human", "details": "Homo sapiens; JIMT-1, 48 h, MTS; read-out: CC50", "method": "as §4, §5, §6"}, "JIMT-1 [5]": {"system": "JIMT-1", "details": "JIMT-1, absence or presence of 40 µM QVD, 48 h", "method": "(§9) One of the hallmark features of cytotoxic GAELs is their ability to kill cancer cells via an apoptosis-independent mechanism. We evaluated whether the mechanism of action of 3 was similar to other GAELs.\n(§10) Equal numbers of JIMT-1, or DU145 cells were dispersed into 96-well plates, and after 4 h the cells were treated with pan-caspase inhibitor QVD-OPh (40 µM). After 20 h, the cells were incubated with the varying concentration of the compounds ([…]) for 48 h. At the end of the incubation, the MTS assay was used to assess cell viability as described above.\n(§11) DU-145 or JIMT-1 cell lines were treated with increasing concentrations of 3 or Adriamycin in the presence or absence of 40 µM QVD. Four hours after plating, cells were treated with QVD. After 20 h, the cells were incubated with 0–15 µM 3 or 0–4 µM Adriamycin for 48 h. Cell viability relative to vehicle control was measured by MTS assay."}, "DU-145 [6]": {"system": "DU-145", "details": "DU-145, absence or presence of 40 µM QVD, 48 h", "method": "as §9, §10, §11"}, "[7]": {"system": "BT549, MDA-MB-453, MDA-MB-468, and Hs578t (triple negative breast cancer lines)", "test": "MTS cell viability assay, 48 h, triple negative breast cancer lines", "assay_type": "cell-based, human", "details": "with the exception of MDA-MB-453", "method": "as §7, §5, §8"}}, "note": "Read-outs that look alike come from different tables or passages of the source.", "data": [{"smiles": "CCCCCCCCCCCCCCCCOCC(CN)OC1OC(C)C(O)C(O)C1O", "note": "[Compound 3, 3-Amino-1-O-hexadecyloxy-2R-(O–α-L-rhamnopyranosyl)-sn-glycerol]", "values": [{"measurement": "Cell membrane lysis (EthD-1 staining)", "setting": "JIMT-1 [1]", "result": "no significant cell membrane lysis"}, {"measurement": "Cell membrane lysis (EthD-1 staining)", "setting": "DU-145 [2]", "result": "no significant cell membrane lysis"}, {"measurement": "CC50", "setting": "[3]; Homo sapiens", "result": "4.8 to 14", "unit": "µM"}, {"measurement": "Concentration range giving greater than 90% loss of cell viability", "setting": "[3]; all the cell lines", "result": "7.5 to 15.0", "unit": "µM"}, {"measurement": "CC50", "setting": "[3]", "result": "4.8 to 11", "unit": "µM"}, {"measurement": "CC50", "setting": "MDA-MB-231", "result": 4.8, "unit": "µM"}, {"measurement": "CC50", "setting": "MDA-MB-453; Homo sapiens, MDA-MB-453", "result": 13.8, "unit": "µM"}, {"measurement": "Viability inhibited", "setting": "MDA-MB-453; MDA-MB-453, at the highest concentration tested", "result": 60, "unit": "%"}, {"measurement": "CC50", "setting": "JIMT-1 [4]", "result": 5.5, "unit": "µM"}, {"measurement": "Effect of QVD on cytotoxicity", "setting": "JIMT-1 [5]", "result": "no statistically significant differences"}, {"measurement": "Effect of QVD on cytotoxicity", "setting": "DU-145 [6]", "result": "no statistically significant differences"}, {"measurement": "Concentrations sufficient to kill all the triple negative cell lines", "setting": "[7]", "result": "6 to 15", "unit": "µM"}]}]}
